Experimental data published in the supplement of paper PMC10331698.
± gives the standard deviation of the averaged measurements.

Assays:
Assay in all cases: level (log10 ratio to DMSO vehicle control); higher = higher biomarker level / cell amount than vehicle control
Conditions in all cases: in DMSO
[1] = compound: FC(F)(F)C(F)(F)C(F)(F)CI [Heptafluorobutyl iodide]
Experimental: (§1)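 BioMAP Diversity Plus panel of 12 human primary cell co-culture systems (3C, 4H, LPS, SAg, BT, BF4T, BE3C, CASM3C, HDF3CGF, KF3CT, MyoF, Mphg). Compounds were added 1 h before stimulation and left for 24 h (MyoF 48 h; BT 72 h for soluble read-outs or 6 d for IgG). Biomarkers were read by ELISA, cytotoxicity by SRB, PBMC viability and proliferation by Alamar Blue. Each well value was divided by the mean of 8 DMSO control wells on the same plate and log10 transformed; duplicate blinded samples were tested at 4 concentrations.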

[2] = compound: O=S(=O)(Cl)C(F)(F)C(F)(F)C(F)(F)C(F)(F)C(F)(F)C(F)(F)C(F)(F)C(F)(F)F [Perfluoro-1-octanesulfonyl chloride]
Experimental: as §1

[3] = compound: O=C(O)C(F)(F)C(F)(F)C(F)(F)C(F)(F)C(F)(F)C(F)(F)C(F)(F)C(F)(F)C(F)(F)C(F)F [11-H-Perfluoroundecanoic acid]
Experimental: as §1

[4] = compound: FC(F)(F)C(F)(F)CNCC(F)(F)C(F)(F)F [Bis(1H,1H-perfluoropropyl)amine]
Experimental: as §1

[5] = compound: NS(=O)(=O)C(F)(F)C(F)(F)C(F)(F)C(F)(F)C(F)(F)C(F)(F)F [Perfluorohexanesulfonamide]
Experimental: as §1

| Test System | level (log10) ([1]; 6700 nM) | level (log10) ([1]; 20000 nM) | level (log10) ([1]; 60000 nM) | level (log10) ([2]; 6700 nM) | level (log10) ([2]; 20000 nM) | level (log10) ([2]; 60000 nM) | level (log10) ([3]; 6700 nM) | level (log10) ([3]; 20000 nM) | level (log10) ([4]; 6700 nM) | level (log10) ([4]; 20000 nM) | level (log10) ([4]; 60000 nM) | level (log10) ([5]; 6700 nM) | level (log10) ([5]; 20000 nM) | level (log10) ([5]; 60000 nM) |
| --- | --- | --- | --- | --- | --- | --- | --- | --- | --- | --- | --- | --- | --- | --- |
| MyoF:Decorin | 0.0045 ± 0.016 | -0.016 ± 0.0071 | 0.005 ± 0.0042 | -0.007 ± 0.0071 | 0.014 ± 0.033 | 0.09 ± 0.085 | 0.0415 ± 0.077 | 0.052 ± 0.031 | -0.005 ± 0.0071 | -0.0065 ± 0.021 | 0.015 ± 0.034 | 0.0325 ± 0.076 | -0.0095 ± 0.1 | -0.03 ± 0.054 |
| CASM3C:CXCL9/MIG | -0.0295 ± 0.0021 | -0.0225 ± 0.0021 | -0.002 ± 0.038 | 0.0015 ± 0.052 | 0.013 ± 0.035 | 0.0735 ± 0.033 | 0 ± 0.0071 | -0.009 ± 0.018 | 0.0175 ± 0.025 | 0.006 ± 0.0014 | -0.0065 ± 0.069 | 0.003 ± 0.0042 | -0.0065 ± 0.005 | -0.003 ± 0.023 |
| BE3C:uPA | -0.0015 ± 0.00071 | -0.0105 ± 0.00071 | -0.0025 ± 0.0035 | -0.006 ± 0.0028 | 0.0085 ± 0.0064 | -0.133 ± 0.059 | -0.005 ± 0.02 | -0.211 ± 0.029 | -0.0155 ± 0.0064 | -0.0185 ± 0.0092 | -0.003 ± 0.013 | -0.0115 ± 0.032 | 0.0025 ± 0.037 | -0.0365 ± 0.037 |
| HDF3CGF:CCL2/MCP-1 | -0.01 ± 0.0057 | -0.013 ± 0.0057 | -0.0025 ± 0.025 | -0.026 ± 0.038 | -0.0505 ± 0.021 | -0.0235 ± 0.028 | 0.0125 ± 0.0064 | -0.065 ± 0.014 | -0.032 ± 0.023 | -0.021 ± 0.011 | 0.014 ± 0.031 | 0.0185 ± 0.016 | 0.047 ± 0.018 | 0.091 ± 0.014 |
| HDF3CGF:TIMP-1 | -0.0195 ± 0.037 | -0.019 ± 0.0085 | -0.059 ± 0.025 | 0.016 ± 0.038 | 0.053 ± 0.0057 | 0.139 ± 0.016 | 0.0005 ± 0.096 | 0.1 ± 0.072 | 0 ± 0.0099 | -0.0525 ± 0.049 | 0.011 ± 0.0071 | 0.0235 ± 0.0078 | 0.048 ± 0.021 | 0.05 ± 0.017 |
| HDF3CGF:CXCL11/I-TAC | -0.0515 ± 0.019 | -0.069 ± 0.076 | -0.091 ± 0.045 | -0.038 ± 0.0028 | -0.0315 ± 0.018 | -0.0145 ± 0.022 | -0.127 ± 0.023 | -0.2405 ± 0.0021 | -0.0065 ± 0.0092 | -0.0045 ± 0.013 | 0.0195 ± 0.035 | 0.0075 ± 0.018 | -0.028 ± 0.011 | -0.189 ± 0.033 |
| lMphg:IL-1alpha | 0.029 ± 0.027 | 0.0335 ± 0.03 | 0.0305 ± 0.019 | -0.0225 ± 0.033 | -0.005 ± 0.042 | 0.021 ± 0.088 | -0.024 ± 0.024 | -0.008 ± 0.0014 | -0.025 ± 0.0071 | -0.031 ± 0.0057 | 0.0295 ± 0.059 | 0.019 ± 0.052 | 0.114 ± 0.016 | 0.148 ± 0.0028 |
| KF3CT:CCL2/MCP-1 | -0.0045 ± 0.0021 | -0.018 ± 0.013 | 0.0195 ± 0.016 | -0.031 ± 0.025 | -0.0315 ± 0.019 | -0.0485 ± 0.016 | -0.043 ± 0.021 | -0.129 ± 0.0078 | -0.0015 ± 0.05 | 0.001 ± 0.048 | -0.012 ± 0.042 | -0.0225 ± 0.021 | -0.0525 ± 0.013 | -0.0145 ± 0.013 |
| HDF3CGF:PAI-I | 0.0035 ± 0.043 | -0.004 ± 0.03 | -0.018 ± 0.027 | 0.0185 ± 0.0021 | 0.0435 ± 0.0064 | 0.0255 ± 0.032 | 0.018 ± 0.0099 | -0.0045 ± 0.0035 | -0.001 ± 0.0071 | -0.0105 ± 0.013 | 0 ± 0.033 | -0.0075 ± 0.083 | 0.081 ± 0.0071 | -0.0365 ± 0.037 |
| 3C:CD141/Thrombomodulin | -0.0335 ± 0.04 | -0.0305 ± 0.005 | -0.025 ± 0.014 | 0.012 ± 0.025 | 0.0215 ± 0.016 | 0.186 ± 0.0021 | -0.0065 ± 0.005 | -0.0255 ± 0.033 | 0.0205 ± 0.043 | 0.0255 ± 0.04 | 0.046 ± 0.058 | -0.04 ± 0.023 | -0.045 ± 0.02 | 0.0135 ± 0.033 |
| HDF3CGF:CXCL10/IP-10 | 0.0035 ± 0.012 | -0.007 ± 0.011 | -0.017 ± 0.014 | -0.0115 ± 0.0021 | -0.046 ± 0.021 | -0.0365 ± 0.018 | -0.117 ± 0.011 | -0.331 ± 0.0071 | 0.011 ± 0.011 | -0.001 ± 0.0042 | 0.0265 ± 0.025 | -0.02 ± 0.037 | -0.059 ± 0.037 | -0.185 ± 0.069 |
| 4H:SRB | -0.001 ± 0.0028 | 0.0045 ± 0.0064 | 0.011 ± 0.0099 | -0.0105 ± 0.0078 | 0 ± 0.014 | -0.0495 ± 0.061 | 0.0145 ± 0.0092 | 0.0105 ± 0.018 | -0.0245 ± 0.013 | 0 ± 0.017 | 0.0015 ± 0.013 | -0.01 ± 0.0085 | -0.028 ± 0.0099 | -0.101 ± 0.0014 |
| BE3C:tPA | -0.0095 ± 0.029 | -0.024 ± 0.011 | 0.015 ± 0.044 | 0.01 ± 0.047 | 0 ± 0.04 | -0.359 ± 0.11 | 0.036 ± 0.058 | -0.338 ± 0.018 | -0.0285 ± 0.0021 | -0.0685 ± 0.011 | -0.0225 ± 0.036 | -0.0075 ± 0.035 | 0.0005 ± 0.016 | -0.245 ± 0.059 |
| CASM3C:CD141/Thrombomodulin | -0.025 ± 0.0099 | -0.039 ± 0.0085 | -0.0125 ± 0.013 | -0.019 ± 0.011 | 0.012 ± 0.017 | 0.03 ± 0.0071 | -0.015 ± 0.021 | -0.0085 ± 0.019 | 0.019 ± 0.011 | 0.007 ± 0.0099 | 0.001 ± 0.02 | -0.022 ± 0.025 | -0.0305 ± 0.021 | 0.016 ± 0.014 |
| CASM3C:M-CSF | -0.001 ± 0.0042 | -0.0165 ± 0.0021 | 0.0195 ± 0.037 | 0.008 ± 0.014 | 0.0095 ± 0.018 | 0.0425 ± 0.005 | 0.0055 ± 0.0035 | -0.004 ± 0.0099 | 0.006 ± 0.016 | -0.005 ± 0.016 | 0.0115 ± 0.028 | 0.009 ± 0.035 | 0.0295 ± 0.012 | 0.119 ± 0.0035 |
| KF3CT:TIMP-2 | -0.023 ± 0.018 | 0.0135 ± 0.00071 | -0.0125 ± 0.015 | -0.031 ± 0.0071 | -0.0235 ± 0.018 | -0.017 ± 0.051 | -0.001 ± 0.0071 | -0.012 ± 0.0071 | 0.001 ± 0.017 | -0.024 ± 0.014 | 0.016 ± 0.054 | -0.01 ± 0.02 | -0.0115 ± 0.0064 | 0.008 ± 0.0057 |
| CASM3C:Serum Amyloid A | -0.027 ± 0.0014 | 0.0075 ± 0.0021 | 0.0035 ± 0.012 | -0.008 ± 0.011 | -0.0165 ± 0.005 | 0.016 ± 0.025 | 0.0155 ± 0.00071 | 0.0205 ± 0.036 | 0.0025 ± 0.019 | -0.007 ± 0.0057 | 0.0065 ± 0.032 | -0.0055 ± 0.039 | 0.012 ± 0.018 | 0.0625 ± 0.018 |
| MyoF:alpha-SM Actin | 0.018 ± 0.0085 | 0.026 ± 0.054 | 0.0225 ± 0.032 | 0.0635 ± 0.0064 | 0.0665 ± 0.032 | -0.0065 ± 0.03 | -0.044 ± 0.033 | -0.11 ± 0.033 | 0.0315 ± 0.037 | 0.0225 ± 0.046 | 0.0245 ± 0.043 | -0.003 ± 0.035 | 0.01 ± 0.033 | 0.004 ± 0.0057 |
| HDF3CGF:TIMP-2 | -0.033 ± 0.0042 | -0.044 ± 0.0071 | -0.013 ± 0.051 | -0.002 ± 0.048 | -0.0185 ± 0.013 | -0.0205 ± 0.0021 | -0.0675 ± 0.046 | -0.103 ± 0.025 | -0.005 ± 0.017 | -0.0085 ± 0.033 | 0.022 ± 0.0014 | 0.012 ± 0.023 | 0.0005 ± 0.0021 | -0.157 ± 0.0057 |
